The target in experiment [1] is Putative P2Y purinoceptor 10 (Mus musculus, UniProt Q8BFU7). The experiment in a line: Agonist activity at mouse LPS2/P2Y10 transfected in HEK293-A cells co-transfected with AP-TGFalpha assessed as AP-TGFalpha release by TGFalpha shedding assay. The settings on record: read-out: EC50. It counts as functional, cell-based.
In experiment [2] the target is Putative P2Y purinoceptor 10 (Mus musculus) (UniProt Q8BFU7). The experiment in a line: Agonist activity at mouse LPS2/P2Y10 transfected in HEK293-A cells co-transfected with AP-TGFalpha assessed as AP-TGFalpha release by TGFalpha shedding assay relative to LysoPS. It counts as functional, cell-based. The conditions noted are these: filed as agonist.
Experiment [3] deals with McA-RH7777. Briefly: Induction of actin stress fiber formation in rat McA-RH7777 cells expressing mouse LPS2 at 0.001 to 1 uM incubated for 30 mins by Alexa594-labelled phalloidin staining based fluorescence microscopic analysis. The conditions noted are these: dose 0.001-1 µM. In kind it is functional, cell-based.
Experiment [4] addresses T1, Putative P2Y purinoceptor 10 (Homo sapiens, UniProt O00398). The experiment in a line: Agonist activity at human LPS2/P2Y10 transfected in HEK293-A cells co-transfected with AP-TGFalpha assessed as AP-TGFalpha release by TGFalpha shedding assay. It counts as functional, cell-based. The settings on record: read-out: EC50.
For experiment [5], the target named is T1, Putative P2Y purinoceptor 10. The experiment in a line: Agonist activity at human LPS2/P2Y10 transfected in HEK293-A cells co-transfected with AP-TGFalpha assessed as AP-TGFalpha release by TGFalpha shedding assay relative to LysopPS. It counts as functional, cell-based. The settings on record: filed as agonist.
For experiment [6], the system named is McA-RH7777. Briefly: Induction of actin stress fiber formation in rat McA-RH7777 cells expressing mouse LPS2 at 1 nM incubated for 30 mins by Alexa594-labelled phalloidin staining based fluorescence microscopic analysis. In kind it is functional, cell-based.
For experiment [7], the target named is T1, Putative P2Y purinoceptor 10. The experiment in a line: Agonist activity at wildtype N-terminal FLAG-tagged human LPS2/P2Y10 transfected in HEK293-A cells co-transfected with AP-TGFalpha assessed as AP-TGFalpha release by TGFalpha shedding assay. In kind it is functional, cell-based.
The target is the same in experiment [8]. Briefly: Agonist activity at wildtype N-terminal FLAG-tagged human LPS2/P2Y10 transfected in HEK293-A cells co-transfected with AP-TGFalpha assessed as AP-TGFalpha release by TGFalpha shedding assay relative to LysoPS. The conditions noted are these: filed as agonist. In kind it is functional, cell-based.
For experiment [9], the target named is Putative P2Y purinoceptor 10 (Homo sapiens, UniProt O00398, V159F). Briefly: Agonist activity at N-terminal FLAG-tagged human LPS2/P2Y10 V159F mutant transfected in HEK293-A cells co-transfected with AP-TGFalpha assessed as AP-TGFalpha release by TGFalpha shedding assay. It counts as cell-based.
Experiment [10] deals with Putative P2Y purinoceptor 10 (Homo sapiens), O00398 [V159F]. The experiment in a line: Agonist activity at N-terminal FLAG-tagged human LPS2/P2Y10 V159F mutant transfected in HEK293-A cells co-transfected with AP-TGFalpha assessed as AP-TGFalpha release by TGFalpha shedding assay relative to LysoPS. In kind it is cell-based. The conditions noted are these: filed as agonist.

For experiment [11], the target named is Putative P2Y purinoceptor 10 (Homo sapiens, UniProt O00398, A163F). The experiment in a line: Agonist activity at N-terminal FLAG-tagged human LPS2/P2Y10 A163F mutant transfected in HEK293-A cells co-transfected with AP-TGFalpha assessed as AP-TGFalpha release by TGFalpha shedding assay. In kind it is cell-based.
Experiment [12] deals with Putative P2Y purinoceptor 10 (Homo sapiens), O00398 [A163F]. The experiment in a line: Agonist activity at N-terminal FLAG-tagged human LPS2/P2Y10 A163F mutant transfected in HEK293-A cells co-transfected with AP-TGFalpha assessed as AP-TGFalpha release by TGFalpha shedding assay relative to LysoPS. It counts as cell-based. The conditions noted are these: filed as agonist.

Experiment [13] concerns McA-RH7777. Briefly: Induction of actin stress fiber formation in rat McA-RH7777 cells expressing mouse LPS2 at 1 uM incubated for 30 mins by Alexa594-labelled phalloidin staining based fluorescence microscopic analysis. In kind it is functional, cell-based.

The source made the active and inactive calls. No cut-off for these calls is given here.

Putative P2Y purinoceptor 10 (Mus musculus, UniProt Q8BFU7), sequence (Q8BFU7 whole entry): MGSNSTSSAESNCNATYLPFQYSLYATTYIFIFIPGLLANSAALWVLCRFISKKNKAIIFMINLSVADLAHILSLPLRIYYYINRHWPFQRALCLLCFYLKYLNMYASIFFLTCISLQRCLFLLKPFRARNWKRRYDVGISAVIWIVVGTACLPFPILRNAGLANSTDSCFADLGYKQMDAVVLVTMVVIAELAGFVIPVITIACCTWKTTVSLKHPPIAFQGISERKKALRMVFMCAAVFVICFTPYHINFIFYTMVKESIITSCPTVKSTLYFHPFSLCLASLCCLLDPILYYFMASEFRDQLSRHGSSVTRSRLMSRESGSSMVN
Putative P2Y purinoceptor 10 (Mus musculus), sequence (Q8BFU7 whole entry): as above
Putative P2Y purinoceptor 10 (Homo sapiens, UniProt O00398, V159F), sequence (O00398 whole entry V159F): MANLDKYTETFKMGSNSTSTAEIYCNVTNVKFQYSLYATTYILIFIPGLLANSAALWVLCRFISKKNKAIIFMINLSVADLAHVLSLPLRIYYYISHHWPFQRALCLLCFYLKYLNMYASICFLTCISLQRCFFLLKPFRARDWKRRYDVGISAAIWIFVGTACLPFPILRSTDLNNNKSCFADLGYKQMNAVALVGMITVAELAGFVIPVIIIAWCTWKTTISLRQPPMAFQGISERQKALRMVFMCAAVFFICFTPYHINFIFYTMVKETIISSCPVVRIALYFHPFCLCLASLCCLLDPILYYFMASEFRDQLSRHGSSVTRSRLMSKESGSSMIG
Putative P2Y purinoceptor 10 (Homo sapiens), O00398 [V159F], sequence (O00398 whole entry V159F): as above
Putative P2Y purinoceptor 10 (Homo sapiens, UniProt O00398, A163F), sequence (O00398 whole entry A163F): as the sequence (O00398 whole entry V159F) above, with F159V, A163F counted along it
Putative P2Y purinoceptor 10 (Homo sapiens), O00398 [A163F], sequence (O00398 whole entry A163F): as the sequence (O00398 whole entry V159F) above, with F159V, A163F counted along it
T1 sequence (O00398 whole entry): as the sequence (O00398 whole entry V159F) above, with F159V counted along it

As a reminder, the EC50 is the concentration needed to bring the measured effect to its halfway point. As a reminder, the Emax is the size of the effect at its maximum, as opposed to the concentration needed. As for `N[C@@H](COP(=O)(O)OCCCOC(=O)CCc1ccccc1Oc1ccc(-c2ccc(C(=O)O)cc2)cc1)C(=O)O`, in experiment [1], the EC50 amounted to 170 nM. Further, the maximal effect (Emax) in [2] turned out to be 100%. The result with McA-RH7777 [3] was inactive.

`N[C@@H](COP(=O)(O)OCCCOC(=O)CCc1ccccc1Oc1ccc(-c2cc(-c3ccccc3)cc(-c3ccccc3)c2)cc1)C(=O)O`: the figures for the EC50 in experiment [1] and in experiment [4] were 1.9 nM and 6.1 nM, respectively. For the same molecule, the values for the Emax in experiment [2] and in experiment [5] were 83% and 112%, respectively. Moreover, in the experiment on McA-RH7777 [6], the result was Active.

With `CC(C)(C)c1ccc(Oc2ccccc2CCC(=O)OCCCOP(=O)(O)OC[C@H](N)C(=O)O)cc1`, the EC50 stood at 67 nM in experiment [1], 180 nM in experiment [7], 250 nM in [9] and 470 nM in experiment [11]. Also, the Emax in experiment [2] was determined as 123%; in [8] it was 119%; in experiment [10], 131%; in experiment [12], 113%.

Take `CCCCCCCC/C=C\CCCCCCCC(=O)OC[C@@H](O)COP(=O)(O)OC[C@H](N)C(=O)O`: the EC50 in experiment [1] stood at 21 nM. For the same molecule, in the experiment on McA-RH7777 [13], the outcome was Active.

As for `Cc1ccc(Oc2ccccc2CCC(=O)OCCCOP(=O)(O)OC[C@H](N)C(=O)O)cc1`, the EC50 in experiment [1] was determined as 140 nM; in experiment [7], 810 nM; in experiment [9], 660 nM; in [11] it was 350 nM. Further, the maximal effect (Emax) in experiment [2] is 88%; in experiment [8], 114%; in experiment [10], 117%; in experiment [12], 92%.

As to `N[C@@H](COP(=O)(O)OCCCOC(=O)CCc1ccccc1Oc1ccc(-c2cccc(-c3ccccc3)c2)cc1)C(=O)O`, the EC50 in experiment [1] came to 1 nM; in experiment [4], 22 nM. Moreover, the maximal effect (Emax) in [2] was 113%; in [5], 125%. The result in the experiment on McA-RH7777 [6] was Active.

On to `N[C@@H](COP(=O)(O)OCCCOC(=O)CCc1ccccc1Oc1ccc(-c2ccccc2)cc1)C(=O)O`, for which the EC50 in experiment [1] is 9.2 nM; in [4] it was 71 nM; in experiment [7] it was 53 nM; in experiment [9], 26 nM; in experiment [11] it was 33 nM. Further, the maximal response (Emax) came to 111% in [2]; 133% in [5]; 125% in experiment [8]; 131% in experiment [10]; 122% in experiment [12].

Regarding `N[C@@H](COP(=O)(O)OCCCOC(=O)CCc1ccccc1Oc1ccc(C23C[C@H]4C[C@@H](C2)C[C@@H](C3)C4)cc1)C(=O)O`, the EC50 in experiment [1] is 57 nM; in [7], 170 nM; in experiment [9], 270 nM; in experiment [11], 390 nM. The Emax in experiment [2] is 107%; in experiment [8], 120%; in experiment [10], 128%; in [12], 137%.

(Values after ChEMBL document CHEMBL5360551, “Exploration of LPS2 agonist binding modes using the combination of a new hydrophobic scaffold and homology modeling” (Eur J Med Chem, 2023).)
